{"source": "patent US20090099141A1", "about": "“COMPOSITIONS AND METHODS FOR TREATING VITAMIN D DEFICIENCIES” (priority 2005, published 2009)", "assay": "Serum level of 25(OH)D in an adult human after oral 250 μg (10,000 IU) vitamin D3 tablets (Nichols method)", "type": "in vivo", "description": "During the winter months an adult living in a northern region of the United States receiving no vitamin D supplements other than through their normal diet is found to have a serum level of 25(OH)D of about 25 nmole/L. The person is provided with four (4) blister packs, each pack containing four (4) 250 μg (10,000 IU) of vitamin D3. The blister pack has instructions to take one tablet by mouth once a week. The person is instructed to take all of the tablets according to instructions provided on the pack. Blood samples are drawn each week just before a tablet is taken and the serum levels of 25(OH)D are determined. Serum levels of 25(OH)D can be determined by the Nichols method (catalog no. 40-2135; Nichols Institute Diagnostics). Within approximately two months, serum levels increase by about 15 to about 20 nmole/L to a level of at least about 40 nmole/L.\nDuring the winter months an adult living in a northern region of the United States receiving no vitamin D supplements other than through their normal diet is found to have a serum level of 25(OH)D of about 18 nmole/L. The person is provided with four (4) blister packs, each pack having one tablet for each day of the month [about thirty (30) tablets], and each tablet containing 250 μg (10,000 IU) of vitamin D3. The blister pack has instructions to take one tablet by mouth once a day, noting on the pack, where indicated, the date and time each tablet is taken. The person is instructed to take all of the tablets according to instructions provided on the pack. Blood samples are drawn after one (1) week and each week thereafter at approximately the same time and the serum levels of 25(OH)D are determined. Serum levels of 25(OH)D can be determined by the Nichols method (catalog no. 40-2135; Nichols Institute Diagnostics). Within approximately two months, serum levels increase by at least 100 nmole/L to a level of at least about 120 nmole/L and, within about 4 months, increase by at least about 180 nmole/L to a level of at least about 200 nmole/L.\nDuring the winter months an adult living in a northern region of the United States receiving no vitamin D supplements other than through their normal diet is found to have a serum level of 25(OH)D of about 35 nmole/L. The person is provided with four (4) blister packs, each pack containing fifteen (15) 250 μg (10,000 IU) of vitamin D3. The blister pack has instructions to take one tablet by mouth once every other day, noting on the pack, where indicated, the date and time each tablet is taken. The person is instructed to take all of the tablets according to instructions provided on the pack. Blood samples are drawn each week at approximately the same time and the serum levels of 25(OH)D are determined. Serum levels of 25(OH)D can be determined by the Nichols method (catalog no. 40-2135; Nichols Institute Diagnostics). Within approximately one-month serum levels increase by at least about 60-70 nmole/L to a level of at least about 100 nmole/L and within about 4 months […] a level of about 120 nmole/L.", "key": {"[1]": {"conditions": "adult female, baseline about 18 nmole/L, 250 μg (10,000 IU) tablet by mouth once a day, within about 4 months"}, "[2]": {"conditions": "adult female, baseline about 18 nmole/L, 250 μg (10,000 IU) tablet by mouth once a day, within approximately two months"}, "[3]": {"conditions": "adult male, baseline about 35 nmole/L, 250 μg (10,000 IU) tablet by mouth once every other day, within approximately one month"}}, "data": [{"smiles": "C=C1CC[C@H](O)C/C1=C/C=C1\\CCC[C@]2(C)[C@@H]([C@H](C)CCCC(C)C)CC[C@@H]12", "note": "[vitamin D3]", "values": [{"measurement": "increase in serum level of 25(OH)D", "setting": "[1]", "value": "at least 180 nmole/L"}, {"measurement": "serum level of 25(OH)D", "setting": "[1]", "value": "at least 200 nmole/L"}, {"measurement": "increase in serum level of 25(OH)D", "setting": "[2]", "value": "at least 100 nmole/L"}, {"measurement": "serum level of 25(OH)D", "setting": "[2]", "value": "at least 120 nmole/L"}, {"measurement": "serum level of 25(OH)D", "setting": "adult male, baseline about 25 nmole/L, 250 μg (10,000 IU) tablet by mouth once a week, within approximately two months", "value": "at least 40 nmole/L"}, {"measurement": "serum level of 25(OH)D", "setting": "adult male, baseline about 35 nmole/L, 250 μg (10,000 IU) tablet by mouth once every other day, within about 4 months", "value": "about 120 nmole/L"}, {"measurement": "increase in serum level of 25(OH)D", "setting": "[3]", "value": "60 to 70", "unit": "nmol/L"}, {"measurement": "serum level of 25(OH)D", "setting": "[3]", "value": "at least 100 nmole/L"}]}]}
